The target of the experiment is T1, tissue factor:factor VIIa complex (tissue factor on human bladder carcinoma J-82 cells) (Homo sapiens, UniProt P08709).
T1 construct: endogenous in cells; host or cells: J-82 (ATCC HTB-1) human bladder carcinoma cells: source of the tissue factor only
Description: Factor X activation chromogenic substrate assay (J-82 cells as source of tissue factor, Spectrozyme Xa). The format is biochemical. The conditions noted are these: PPACK 1 μM; positive control; 30 min at room temperature, OD-405; read-out: Percent Inhibition of F.X Activation. From the text: The second screening was used to evaluate the ability of isolated antibodies to inhibit tissue factor catalyzed factor VII activity as reflected by the conversion of factor X to factor Xa. The human bladder carcinoma cell line J-82 (ATCC HTB-1) expresses cell surface-associated tissue factor and is used as the source of tissue factor and phospholipids. A chromogenic substrate for factor Xa is used, which develops color proportional to the amount of factor VIIa activity. Conversely, color is not developed if factor VII activity is blocked. The assay is performed as follows. J-82 cells are suspended in tris-buffered saline at a concentration of 1×10^5 cells per mL. Fifty microliters of cell suspension is added to individual wells of a 96-well polystyrene microliter plate. Fifty microliters of hybridoma culture supernatant diluted at least 1:10 is added to appropriate wells followed by 25 μL of 20 mM CaCl2. Negative control is irrelevant hybridoma culture supernatant (such as anti-tPA supernatant) and positive control is 1 μM PPACK (d-phenylalanine-proline-arginine-chloromethylkefone). Twenty-five microliters of 90 nM factor X and 50 λL of substrate Spectrozyme Xa are added to each well. Following thirty minute incubation at room temperature, OD-405 is determined. […]

A word on the inhibition: it is the relative decrease from the control value, in per cent.

T1 sequence (P08709 213-466 limits assumed): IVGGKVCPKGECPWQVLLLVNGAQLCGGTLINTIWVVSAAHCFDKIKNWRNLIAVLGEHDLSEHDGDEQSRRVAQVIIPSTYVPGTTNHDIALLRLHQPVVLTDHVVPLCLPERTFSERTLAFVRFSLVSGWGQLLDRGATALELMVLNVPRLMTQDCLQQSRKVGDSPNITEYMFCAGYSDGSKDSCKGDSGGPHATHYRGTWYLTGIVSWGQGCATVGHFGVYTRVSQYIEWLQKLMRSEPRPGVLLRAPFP
T1 sequence (P08709 61-212 limits assumed): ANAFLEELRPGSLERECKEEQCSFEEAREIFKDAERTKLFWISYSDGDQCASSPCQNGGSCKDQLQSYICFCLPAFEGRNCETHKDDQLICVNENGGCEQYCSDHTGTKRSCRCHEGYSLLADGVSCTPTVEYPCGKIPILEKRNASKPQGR
T1 sequence (P13726 33-295 partner): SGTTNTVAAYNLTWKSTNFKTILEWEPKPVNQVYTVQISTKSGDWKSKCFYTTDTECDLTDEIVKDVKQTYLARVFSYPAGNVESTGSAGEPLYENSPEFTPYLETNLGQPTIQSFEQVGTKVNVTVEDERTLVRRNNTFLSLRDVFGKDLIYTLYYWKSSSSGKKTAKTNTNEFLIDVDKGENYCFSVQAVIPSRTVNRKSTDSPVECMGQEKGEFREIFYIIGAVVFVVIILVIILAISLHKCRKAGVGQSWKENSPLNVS

For `N=C(N)NCCC[C@H](NC(=O)[C@@H]1CCCN1C(=O)[C@H](N)Cc1ccccc1)C(=O)CCl` [PPACK, d-phenylalanine-proline-arginine-chloromethylkefone], the inhibition at 1 µM worked out at 100%.

The record behind these values is US5506134A, “Hypridoma and monoclonal antibody which inhibits blood coagulation tissue factor/factor VIIa complex” (Corvas International, Inc., priority 1991, dated 1996).
